Assay results taken from patent US20210077498A1, “TRANSIENT PROTECTION OF HEMATOPOIETIC STEM AND PROGENITOR CELLS AGAINST IONIZING RADIATION” (G1 Therapeutics, Inc., priority 2015, published 2021).
Values belong to the compound of their own block, whether it stands above or below them.

Tests used:
[1] = tested on: HS68 cells; assay: G1 arrest (cellular G1 and S-phase) assay, propidium iodide flow cytometry; format: cell-based; conditions: Homo sapiens
Method: For determination of cellular fractions in various stages of the cell cycle following various treatments, HS68 cells (human skin fibroblast cell line (Rb-positive)) were stained with propidium iodide staining solution and run on Dako Cyan Flow Cytometer. The fraction of cells in G0-G1 DNA cell cycle versus the fraction in S-phase DNA cell cycle was determined using FlowJo 7.2.2 analysis.
Formulas I, II, III, and IV were tested for their ability to arrest HS68 cells at the G1 phase of the cell cycle.

[2] = tested on: tHS68 cells; assay: g-H2A.X assay after irradiation; format: cell-based; conditions: 100, 300 or 1,000 nM after 6, 8 or 10 Gy
Method: (§1) DNA damage was determined using the g-H2A.X assay and apoptosis was determined with a Caspase 3/7 assay. For the g-H2AX assay, tHS68 cells were fixed and stained using the g-H2A.X Phosphorylation Assay Kit (Flow Cytometry; Millipore, Temecula, Calif.) by the manufacturer's instructions. g-H2AX-positive tHDF cells were then quantified using a CyAn ADP Analyzer (Beckman Coulter, Indianapolis, Ind.) and FlowJo analysis software (Version 7.2.2; Tree Star, Ashland, Oreg.). For the in vitro caspase 3/7 assay, tHDF cells were analyzed directly in the 96-well plates 24 hours after radiation or staurosporine treatment. Caspase 3/7 activation was measured using the Caspase-Glo 3/7 Assay System (Promega, Madison, Wis.) by following the manufacturer's instructions.
(§2) For the g-H2AX assay, 30,000 cells were plated per well in 12-well plates. For the caspase 3/7 assay, 1,000 cells were plated per well in 96-well white wall clear bottom plates. Cells were incubated at 37° C. in a humidified atmosphere of 5% CO2 for 24 hours and then irradiated at 6 Gy, 8 Gy, or 10 Gy.

[3] = tested on: tHDF cells; assay: Caspase 3/7 assay after irradiation; format: cell-based; conditions: 100, 300 or 1,000 nM after 6, 8 or 10 Gy
Method: as §1, §2

[4] = tested on: 456 (395 non-mutant) kinases; assay: DiscoveRx KINOMEscan profiling; format: binding; conditions: single concentration of 1000 nM
[5] = Metabolic stability in liver microsomes; format: in vitro ADME, and mouse; conditions: each of the species tested (human, monkey, dog, rat, mouse); 1 uM, 0.5 mg/mL microsomes
Method: Human, mouse, and dog liver microsomes were purchased from Xenotech, and Sprague-Dawley rat liver microsomes were prepared by Absorption Systems. The reaction mixture comprising 0.5 mg/mL of liver microsomes, 100 mM of potassium phosphate, pH 7.4, 5 mM of magnesium chloride, and 1 uM of test compound was prepared. The test compound was added into the reaction mixture at a final concentration of 1 uM. An aliquot of the reaction mixture (without cofactor) was incubated in shaking water bath at 37 deg. C. for 3 minutes. The control compound, testosterone, was run simultaneously with the test compound in a separate reaction. The reaction was initiated by the addition of cofactor (NADPH), and the mixture was then incubated in a shaking water bath at 37 deg. C. Aliquots (100 μL) were withdrawn at 0, 10, 20, 30, and 60 minutes for the test compound and 0, 10, 30, and 60 minutes for testosterone. […] Test compound samples were analyzed using the Orbitrap high resolution mass spectrometer to quantify the disappearance of parent test compound and detect the appearance of metabolites. […] Half-lives were calculated using GraphPad software, fitting to a single-phase exponential decay equation.
When calculated half-life was longer than the duration of the experiment, the half-life was expressed as > the longest incubation time. The calculated half-life is also listed in parentheses. […]

[6] = tested on: mice after total body irradiation; assay: Radiomitigation, survival after total body irradiation; format: in vivo
Method: Wild-type mice, young adult (8-12 weeks of age) C57BL/6 (The Jackson Laboratory) or C3H (Harlan Sprague-Dawley) animals were used. Animals were irradiated using a 137Cs AECL GammaCell 40 Irradiator (Atomic Energy of Canada) or a XRAD320 (Precision XRay Inc.) biological irradiator. Experiments were carried out using the 137Cs source, unless otherwise noted.

[7] = tested on: A2058 (human metastatic melanoma cells, Rb-negative); assay: CellTiter-Glo cellular proliferation assay, A2058; format: cell-based; conditions: A2058, 144 h, six days
Method: (§3) Cellular proliferation assays were conducted using the following Rb-negative cancer cell lines: H69 (human small cell lung cancer—Rb-negative) cells or A2058 (human metastatic melanoma cells—Rb-negative). These cells were seeded in Costar (Tewksbury, Mass.) 3093 96 well tissue culture treated white walled/clear bottom plates. Cells were treated Formulas I, II, III, or IV as nine point dose response dilution series from 10 uM to 1 nM. Cells were exposed to compounds and then cell viability was determined after either four (H69) or six (A2058) days as indicated using the CellTiter-Glo® luminescent cell viability assay (CTG; Promega, Madison, Wis., United States of America) following the manufacturer's recommendations. Plates were read on BioTek (Winooski, Vt.) Syngergy2 multi-mode plate reader. The Relative Light Units (RLU) were plotted as a result of variable molar concentration and data was analyzed using Graphpad (LaJolla, Californaia) Prism 5 statistical software to determine the EC50 for each compound.

[8] = tested on: RB-negative SCLC cell lines (H69, H82, H209, H345, NCI417, SHP-77); assay: Proliferation by EdU incorporation, RB-negative SCLC cell lines; format: cell-based; conditions: 24 hours; PD0332991 300 nM, Formula I and III 300 nM or 1000 nM
Method: (§4) SCLC cells were treated with DMSO or the indicated CDK4/6 inhibitor for 24 hours. The effect of CDK4/6 inhibition on proliferation was measured by EdU incorporation. An RB-intact, CDK4/6-dependent cell line (WM2664 or tHS68) and a panel of RB-negative SCLC cell lines (H69, H82, H209, H345, NCI417, or SHP-77) were analyzed for growth inhibition by the various CDK4/6 inhibitors.

[9] = tested on: tHS68 cells; assay: Cell cycle arrest in CDK4/6-dependent cells, propidium iodide flow cytometry; format: cell-based
From the text: To test the ability of CDK4/6 inhibitors to induce a clean G1-arrest, a cell based screening method was used consisting of two CDK4/6-dependent cell lines (tHS68 and WM2664; Rb-positive) and one CDK4/6-independent (A2058; Rb-negative) cell line. […] At the conclusion of the experiment, cells were harvested, fixed, and stained with propidium iodide (a DNA intercalator), which fluoresces strongly red (emission maximum 637 nm) when excited by 488 nm light. Samples were run on Dako Cyan flow cytometer and >10,000 events were collected for each sample. Data were analyzed using FlowJo 2.2 software developed by TreeStar, Inc.

[10] = tested on: H69 (human small cell lung cancer, Rb-negative) cells; assay: CellTiter-Glo cellular proliferation assay, H69; format: cell-based; conditions: NCI-H69, 96 h, four days
Method: as §3

[11] = tested on: WM2664 or tHS68; assay: Proliferation by EdU incorporation, RB-intact CDK4/6-dependent cell line; format: cell-based; conditions: 24 hours; WM2664 for PD0332991 (300 nM), tHS68 for Formula I and III (300 nM or 1000 nM)
Method: as §4

[12] = tested on: CDK4/6 independent Rb-null melanoma cell line A2058; conditions: cited from earlier work
[13] = tested on: mice exposed to peri-lethal and lethal TBI; conditions: compared to untreated controls; cited from earlier work
[14] = Grade 3/4 neutropenia and leukopenia; cited from earlier work
[15] = tested on: HSPC (LKS+) and myeloid progenitor cells (LKS−); conditions: single dose 150 mg/kg oral gavage, mice; cited from earlier work
[16] = tested on: CDK4/6-dependent cell lines; conditions: cited from earlier work
[17] = tested on: human renal proximal tubule epithelial cells (Rb-positive); assay: Cellular wash-out experiment, renal cells; format: cell-based; conditions: 300 nM
Method: Alternatively, the same experiment was done using normal Renal Proximal Tubule Epithelial Cells (Rb-positive) obtained from American Type Culture Collection (ATCC, Manassas, Va.). Cells were grown in an incubator at 37° C. in a humidified atmosphere of 5% CO2 in Renal Epithelial Cell Basal Media (ATCC) supplemented with Renal Epithelial Cell Growth Kit (ATCC) in 37° C. humidified incubator.
Upon harvesting cells, samples were stained with propidium iodide staining solution and samples run on Dako Cyan Flow Cytometer. The fraction of cells in G0-G1 DNA cell cycle versus the fraction in S-phase DNA cell cycle was determined using FlowJo 7.2.2 analysis.

[18] = tested on: HSPC; conditions: in humans; cited from earlier work
[19] = tested on: HSPC; assay: PK half-life and HSPC cell cycle arrest of PD0332991 in humans; format: in vivo
[20] = single oral dose 150 mg/kg 12 hours after exposure

Compound: CN1CCN(c2ccc(Nc3ncc4cc5n(c4n3)C3(CCCCC3)CNC5=O)nc2)CC1 [Formula I, 2′-((5-(4-methylpiperazin-1-yl)pyridin-2-yl)amino)-7′,8′-dihydro-6′H-spiro[cyclohexane-1,9′-pyrazino[1′,2′:1,5]pyrrolo[2,3-d]pyrimidin]-6′-one]
EC50 [1]: 0.1 µM
radiation induced DNA damage (H2AX foci) [2]: dose dependent decrease in radiation induced DNA damage
radiation induced apoptosis (caspase 3/7 activity) [3]: dose dependent decrease in radiation induced apoptosis
number of 395 non-mutant kinases inhibited, threshold 65% ([4]; inhibitory threshold 65%): 92
number of 395 non-mutant kinases inhibited, threshold 90% ([4]; inhibitory threshold 90%): 31
number of 395 non-mutant kinases inhibited, threshold 99% ([4]; inhibitory threshold 99%): 6
half-life in liver microsomes [5]: shorter half-life than PD0332991
survival after 7.5 Gy TBI, two doses ([6]; 150 mg/kg oral at 12 hours and 24 hours post TBI): Survival was also enhanced
survival after 7.2 Gy TBI [6, 20]: provided radiomitigation
survival after 7.5 Gy TBI [6, 20]: significant survival effect
EC50 [7]: > 3 µM
effect on growth (cells in S phase, EdU) of Rb-negative SCLC cell lines [8]: does not affect the growth
cells in S-phase at the highest concentration shown ([9]; tHS68, 24 hours, 28% at baseline): 6%
EC50 ([9]; tHS68 cells, 24 hours, read-out: G1 cell cycle arrest EC50): 0.08 µM
EC50 [10]: > 3 µM
effect on proliferation (cells in S phase, EdU) of Rb-positive cell line [11]: inhibits

EC50 [1]: 0.1 µM
EC50 [7]: 2.61 µM
EC50 [10]: > 3 µM
Compound: O=C1NCC2(CCCCC2)n2c1cc1cnc(Nc3ccc(N4CCNCC4)cn3)nc12 [Formula II, 2′-((5-(piperazin-1-yl)pyridin-2-yl)amino)-7′,8′-dihydro-6′H-spiro[cyclohexane-1,9′-pyrazino[1′,2′:1,5]pyrrolo[2,3-d]pyrimidin]-6′-one]

EC50 [1]: 0.08 µM
EC50 [7]: 2.69 µM
EC50 [10]: 2.92 µM
Compound: CC(C)N1CCN(c2ccc(Nc3ncc4cc5n(c4n3)C3(CCCCC3)CNC5=O)nc2)CC1 [Formula III, 2′-((5-(4-isopropylpiperazin-1-yl)pyridin-2-yl)amino)-7′,8′-dihydro-6′H-spiro[cyclohexane-1,9′-pyrazino[1′,2′:1,5]pyrrolo[2,3-d]pyrimidin]-6′-one]
effect on growth (cells in S phase, EdU) of Rb-negative SCLC cell lines [8]: does not affect the growth
effect on proliferation (cells in S phase, EdU) of Rb-positive cell line [11]: inhibits

EC50 [1]: 0.025 µM
EC50 [7]: > 3 µM
EC50 [10]: > 3 µM
Compound: O=C1NCC2(CCCCC2)n2c1cc1cnc(Nc3ccc(N4CCC(N5CCOCC5)CC4)cn3)nc12 [Formula IV, 2′-((5-(4-morpholinopiperidin-1-yl)pyridin-2-yl)amino)-7′,8′-dihydro-6′H-spiro[cyclohexane-1,9′-pyrazino[1′,2′:1,5]pyrrolo[2,3-d]pyrimidin]-6′-one]

Compound: CC(=O)c1c(C)c2cnc(Nc3ccc(N4CCNCC4)cn3)nc2n(C2CCCC2)c1=O [PD0332991, 6-acetyl-8-cyclopentyl-5-methyl-2-(5-piperazin-1-yl-pyridin-2-ylammino)-8H-pyrido-[2,3-d]-pyrimidin-7-one]
G1 arrest [12]: did not G1 arrest
protection from IR exposure [12]: failed to protect
HSPC protection and survival after TBI [13]: protect HSPCs and improve survival of mice
patients requiring a dose interruption [14]: 71%
patients requiring a dose reduction [14]: 35%
duration of sustained reduction in HSPC (LKS+) and myeloid progenitor (LKS−) EdU incorporation [15]: greater than 36 hours
time post oral dosing of return to baseline cell division [15]: 48 h
IR protection [16]: exhibited IR protective characteristics
effect on growth (cells in S phase, EdU) of Rb-negative SCLC cell lines [8]: does not affect the growth
return to baseline levels of cell division after wash out [17]: took significantly longer to return to baseline levels of cell division
PK half-life [18]: 27 h
total time for normal bone marrow function to return [19]: ≥ 7 days
time to clear the compound ([19]; 5 half-lives × 27 hour half-life): 6 days
duration of cell cycle arrest of HSPC ([19]; single administration): approximately one week
effect on proliferation (cells in S phase, EdU) of Rb-positive cell line [11]: inhibits
